Laboratory results reported in ChEMBL document CHEMBL3576815, “Tankyrase 1 Inhibitors with Drug-like Properties Identified by Screening a DNA-Encoded Chemical Library” (J Med Chem, 2015).

What was measured:
[1] = target: T1, Poly [ADP-ribose] polymerase tankyrase-1 (Homo sapiens, UniProt O95271); test: Inhibition of hexa-histidine tagged recombinant tankyrase 1 biotinylated catalytic domain (amino acids 1106 to 1325) (unknown origin) expressed in Escherichia coli BL21 (DE3) assessed as reduction in ADP-ribosyl transferase activity using NAD+ by chemiluminescence detection based assay
T1 sequence (O95271 whole entry): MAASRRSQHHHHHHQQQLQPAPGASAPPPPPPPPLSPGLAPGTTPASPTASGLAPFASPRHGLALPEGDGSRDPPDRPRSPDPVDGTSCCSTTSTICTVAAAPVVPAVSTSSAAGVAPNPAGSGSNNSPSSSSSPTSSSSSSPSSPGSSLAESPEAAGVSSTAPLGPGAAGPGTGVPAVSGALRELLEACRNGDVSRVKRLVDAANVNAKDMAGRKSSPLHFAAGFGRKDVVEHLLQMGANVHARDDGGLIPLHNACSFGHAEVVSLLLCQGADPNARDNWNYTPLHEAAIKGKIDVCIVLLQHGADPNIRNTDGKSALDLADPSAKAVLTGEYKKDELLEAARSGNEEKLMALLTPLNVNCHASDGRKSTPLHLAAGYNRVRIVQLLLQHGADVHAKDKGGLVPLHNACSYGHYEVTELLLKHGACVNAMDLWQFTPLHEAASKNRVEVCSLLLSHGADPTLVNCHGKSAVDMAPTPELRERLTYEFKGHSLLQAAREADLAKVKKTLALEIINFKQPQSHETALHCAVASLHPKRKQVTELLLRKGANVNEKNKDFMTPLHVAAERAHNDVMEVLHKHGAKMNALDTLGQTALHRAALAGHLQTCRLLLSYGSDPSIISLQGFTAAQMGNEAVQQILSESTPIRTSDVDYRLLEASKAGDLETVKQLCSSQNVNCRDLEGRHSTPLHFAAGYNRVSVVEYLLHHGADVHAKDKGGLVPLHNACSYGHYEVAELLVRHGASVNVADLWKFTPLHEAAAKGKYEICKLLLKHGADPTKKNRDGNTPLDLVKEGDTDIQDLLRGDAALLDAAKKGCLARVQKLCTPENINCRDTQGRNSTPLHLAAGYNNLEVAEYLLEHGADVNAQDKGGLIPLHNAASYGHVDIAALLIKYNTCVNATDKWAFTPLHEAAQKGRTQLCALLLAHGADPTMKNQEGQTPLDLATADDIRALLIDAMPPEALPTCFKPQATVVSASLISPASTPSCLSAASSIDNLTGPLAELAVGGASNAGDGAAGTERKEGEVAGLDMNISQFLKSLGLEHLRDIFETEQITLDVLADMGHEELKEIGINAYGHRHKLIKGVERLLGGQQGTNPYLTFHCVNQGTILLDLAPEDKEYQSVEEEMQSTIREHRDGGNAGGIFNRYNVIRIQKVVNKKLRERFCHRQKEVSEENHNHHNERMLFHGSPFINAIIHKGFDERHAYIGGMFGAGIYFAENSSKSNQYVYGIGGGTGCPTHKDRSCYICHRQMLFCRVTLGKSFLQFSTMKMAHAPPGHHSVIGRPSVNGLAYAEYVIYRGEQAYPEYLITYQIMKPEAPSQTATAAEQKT

[2] = target: T2, Protein mono-ADP-ribosyltransferase PARP10 (Homo sapiens, UniProt Q53GL7); test: Inhibition of full length PARP10 (unknown origin) expressed in Escherichia coli BL21 (DE3) assessed as reduction in ADP-ribosyl transferase activity using NAD+ by chemiluminescence detection based assay
T2 sequence (Q53GL7 whole entry): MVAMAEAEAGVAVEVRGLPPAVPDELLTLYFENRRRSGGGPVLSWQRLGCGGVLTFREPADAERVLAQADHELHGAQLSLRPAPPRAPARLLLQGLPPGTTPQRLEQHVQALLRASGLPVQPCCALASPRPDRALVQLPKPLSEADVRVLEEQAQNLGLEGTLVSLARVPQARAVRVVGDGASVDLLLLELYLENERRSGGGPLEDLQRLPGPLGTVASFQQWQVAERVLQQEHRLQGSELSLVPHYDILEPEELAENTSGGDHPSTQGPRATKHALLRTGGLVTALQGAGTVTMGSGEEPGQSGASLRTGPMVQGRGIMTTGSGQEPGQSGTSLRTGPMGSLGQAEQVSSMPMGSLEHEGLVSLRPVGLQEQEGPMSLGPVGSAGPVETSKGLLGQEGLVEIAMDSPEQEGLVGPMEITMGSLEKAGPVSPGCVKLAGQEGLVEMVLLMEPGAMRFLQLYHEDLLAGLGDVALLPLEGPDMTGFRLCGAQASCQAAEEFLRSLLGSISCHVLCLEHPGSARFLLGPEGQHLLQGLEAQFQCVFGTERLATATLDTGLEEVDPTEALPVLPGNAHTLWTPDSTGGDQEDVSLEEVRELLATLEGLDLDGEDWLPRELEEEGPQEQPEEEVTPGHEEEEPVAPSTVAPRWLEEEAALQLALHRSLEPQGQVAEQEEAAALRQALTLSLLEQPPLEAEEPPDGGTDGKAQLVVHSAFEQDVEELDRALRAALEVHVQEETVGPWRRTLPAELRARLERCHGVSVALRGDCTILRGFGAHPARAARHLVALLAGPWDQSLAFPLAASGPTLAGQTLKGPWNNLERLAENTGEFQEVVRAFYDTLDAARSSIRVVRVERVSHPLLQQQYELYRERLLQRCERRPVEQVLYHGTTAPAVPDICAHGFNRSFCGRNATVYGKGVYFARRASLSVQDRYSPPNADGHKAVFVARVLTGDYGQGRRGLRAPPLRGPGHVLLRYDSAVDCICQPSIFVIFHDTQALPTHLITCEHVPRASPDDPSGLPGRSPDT

[3] = target: T3, Poly [ADP-ribose] polymerase tankyrase-2 (Homo sapiens, UniProt Q9H2K2); test: Inhibition of tankyrase 2 catalytic domain (unknown origin) expressed in Escherichia coli BL21 (DE3) assessed as reduction in ADP-ribosyl transferase activity using NAD+ by chemiluminescence detection based assay
T3 sequence (Q9H2K2 whole entry): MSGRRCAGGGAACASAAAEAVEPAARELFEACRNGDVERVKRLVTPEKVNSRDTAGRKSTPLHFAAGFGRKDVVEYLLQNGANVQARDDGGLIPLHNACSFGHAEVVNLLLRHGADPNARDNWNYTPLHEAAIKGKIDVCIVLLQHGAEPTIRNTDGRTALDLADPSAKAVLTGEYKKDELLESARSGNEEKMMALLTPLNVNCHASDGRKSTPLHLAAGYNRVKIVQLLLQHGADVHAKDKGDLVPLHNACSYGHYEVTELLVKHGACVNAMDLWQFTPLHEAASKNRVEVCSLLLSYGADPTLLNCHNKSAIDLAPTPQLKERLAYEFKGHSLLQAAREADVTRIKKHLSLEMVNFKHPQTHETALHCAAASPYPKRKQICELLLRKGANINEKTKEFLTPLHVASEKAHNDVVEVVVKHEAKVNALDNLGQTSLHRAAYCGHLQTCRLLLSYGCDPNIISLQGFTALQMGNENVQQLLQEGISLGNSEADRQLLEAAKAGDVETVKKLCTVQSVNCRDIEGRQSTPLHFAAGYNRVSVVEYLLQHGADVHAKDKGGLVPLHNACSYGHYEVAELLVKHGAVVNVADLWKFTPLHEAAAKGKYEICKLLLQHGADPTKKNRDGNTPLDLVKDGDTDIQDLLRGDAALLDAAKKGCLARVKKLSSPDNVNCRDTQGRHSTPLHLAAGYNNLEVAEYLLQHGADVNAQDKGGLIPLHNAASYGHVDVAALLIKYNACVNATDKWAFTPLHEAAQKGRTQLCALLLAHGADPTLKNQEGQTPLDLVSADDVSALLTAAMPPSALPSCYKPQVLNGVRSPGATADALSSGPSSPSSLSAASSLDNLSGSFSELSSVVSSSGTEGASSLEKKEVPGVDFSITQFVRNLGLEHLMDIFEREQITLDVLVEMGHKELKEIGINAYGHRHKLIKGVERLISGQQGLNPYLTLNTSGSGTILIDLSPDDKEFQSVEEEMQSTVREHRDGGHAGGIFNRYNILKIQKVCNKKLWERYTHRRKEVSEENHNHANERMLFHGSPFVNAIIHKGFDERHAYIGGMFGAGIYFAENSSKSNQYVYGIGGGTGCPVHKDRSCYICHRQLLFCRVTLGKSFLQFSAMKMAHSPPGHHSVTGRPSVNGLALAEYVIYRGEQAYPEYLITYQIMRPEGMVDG

[4] = target: Poly [ADP-ribose] polymerase 1 (Homo sapiens, UniProt P09874); test: Inhibition of full length PARP1 (unknown origin) expressed in Escherichia coli BL21 (DE3) assessed as reduction in ADP-ribosyl transferase activity using NAD+ by chemiluminescence detection based assay
Poly [ADP-ribose] polymerase 1, sequence (P09874 whole entry): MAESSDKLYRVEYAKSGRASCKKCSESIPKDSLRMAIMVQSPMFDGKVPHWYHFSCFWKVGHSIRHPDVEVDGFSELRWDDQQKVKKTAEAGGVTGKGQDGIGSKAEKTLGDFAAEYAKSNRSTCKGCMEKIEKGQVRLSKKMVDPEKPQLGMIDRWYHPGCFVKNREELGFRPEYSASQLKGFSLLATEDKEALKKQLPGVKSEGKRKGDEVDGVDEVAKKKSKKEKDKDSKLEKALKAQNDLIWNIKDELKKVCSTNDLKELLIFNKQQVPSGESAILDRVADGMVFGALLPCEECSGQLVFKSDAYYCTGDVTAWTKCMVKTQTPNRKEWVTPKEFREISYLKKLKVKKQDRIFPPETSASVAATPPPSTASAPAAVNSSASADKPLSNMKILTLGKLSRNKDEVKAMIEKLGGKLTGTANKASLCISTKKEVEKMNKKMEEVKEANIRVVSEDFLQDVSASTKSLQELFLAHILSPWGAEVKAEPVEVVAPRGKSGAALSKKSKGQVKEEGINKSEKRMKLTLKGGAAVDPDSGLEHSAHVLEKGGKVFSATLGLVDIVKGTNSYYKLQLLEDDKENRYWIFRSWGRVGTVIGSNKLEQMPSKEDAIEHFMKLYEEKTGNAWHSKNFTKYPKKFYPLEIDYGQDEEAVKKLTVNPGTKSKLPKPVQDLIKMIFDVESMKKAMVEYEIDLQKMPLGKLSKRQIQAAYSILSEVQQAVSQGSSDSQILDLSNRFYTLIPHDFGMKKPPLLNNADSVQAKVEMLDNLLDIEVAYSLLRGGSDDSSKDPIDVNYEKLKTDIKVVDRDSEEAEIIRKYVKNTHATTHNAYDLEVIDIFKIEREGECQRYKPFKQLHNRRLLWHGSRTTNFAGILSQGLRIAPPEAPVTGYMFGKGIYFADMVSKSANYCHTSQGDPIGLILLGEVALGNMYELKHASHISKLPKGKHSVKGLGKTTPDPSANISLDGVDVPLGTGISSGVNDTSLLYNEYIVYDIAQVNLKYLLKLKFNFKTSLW

Row | SMILES | IC50 [1] [µM] | IC50 [2] [µM] | IC50 ([3]; read-out: IC50) [µM] | IC50 ([3]; read-out: pIC50 (converted)) [µM] | IC50 [4] [µM]
1 | O=C1CCN(c2ccccc2C(=O)NCCc2nc(-c3ccccn3)no2)C(=O)N1 | 0.25 | 2.2 | 8.1 | 8.13 | 0.26
2 | O=C1CCN(c2ccccc2C(=O)NCc2ccc(-n3cccn3)cc2)C(=O)N1 | 0.33 | > 50 | 8.3 | 8.32 | 0.22
3 | O=C1CCN(c2ccccc2C(=O)NCCc2ccc(Br)cc2)C(=O)N1 | 0.35 | > 50 | 0.91 | 0.912 | 
4 | CN(Cc1ccc(-n2cccn2)cc1)C(=O)c1ccccc1N1CCC(=O)NC1=O | 2.5 |  |  |  | 
5 | COc1ccc2c(c1)C(CC(=O)NCCNC(=O)c1ccccc1N1CCC(=O)NC1=O)CC2=O (configuration not stated) | 0.29 |  | 7.9 | 7.94 | 0.041

Now from value to compound:

Row | IC50 [1] [µM] | IC50 [2] [µM] | IC50 ([3]; read-out: IC50) [µM] | IC50 ([3]; read-out: pIC50 (converted)) [µM] | IC50 [4] [µM] | SMILES
6 | 0.7 | > 50 |  |  | 0.11 | O=C1CCN(c2ccccc2C(=O)NCCc2ccc(Cl)cc2Cl)C(=O)N1
7 | 0.57 | > 50 | 2.4 | 2.4 |  | O=C1CCN(c2ccccc2C(=O)NCCc2ccc(Cl)cc2)C(=O)N1
8 | 4.6 |  |  |  |  | O=C1CCN(c2ccccc2C(=O)NCCc2ccccc2)C(=O)N1
9 | 0.37 | > 50 | 0.47 | 0.468 | 0.028 | COc1ccc2c(c1)C(CC(=O)N[C@@H](CNC(=O)c1ccccc1N1CCC(=O)NC1=O)C(N)=O)CC2=O (some centres not stated)
10 | 0.29 | 34 | 0.33 | 0.331 | 0.2 | COc1ccc2c(c1)C(CC(=O)N1CCN(C(=O)c3ccccc3N3CCC(=O)NC3=O)CC1)CC2=O (configuration not stated)
